Measurements published in US20070203085A1, “Methods For Interfering With Fibrosis” (priority 2004, published 2007).

What was measured:
[1] = system: sgk1+/+ and sgk1−/− mice; assay: DOCA/high salt treatment of sgk1+/+ and sgk1−/− mice: blood pressure, plasma electrolytes, salt intake; format: in vivo
Description: To explore whether SGK1 may be involved in the signalling of cardiac fibrosis a pellet continuously releasing DOCA (2.4 mg/day) was implanted into both sgk1+/+ and sgk1−/− mice along with 1% NaCl in the drinking water.
Mice deficient in SGK1 (sgk1−/−) were generated as previously described 9. Wild type (sgk1+/+) and SGK1 knockout (sgk1−/−) mice were implanted with a 21 day release 50 mg DOCA pellet (Innovative Research of America, Sarasota, Fla.) in the neck area (28) during anesthesia (intraperitoneal medetomidin 0.5 mg/kg+midazolam 5 mg/kg+fentanyl 0.05 mg/kg which was reversed by subcutaneous atipamezol 2.5 mg/kg+flumazenil 0.5 mg/kg+naloxon 1.2 mg/kg). One day before implantation of DOCA pellets, sgk1−/− and sgk1+/+ mice were weighed and placed individually in metabolic cages (Tecniplast Hohenpeissenberg, Germany) for basal 24 hour urine collection. Mice had free access to a standard mouse diet (Altromin, Heidenau, Germany) and tap water and/or 1% or 2% NaCl. The inner wall of the metabolic cages was siliconized and urine was collected under water-saturated oil. Systolic arterial blood pressure was determined by the tail-cuff method before and on days 1, 2, 4, 6, 10 and 14 of DOCA/1% NaCl treatment 29. On day 18 of DOCA/high salt treatment, 24 hour urine and body weight were again determined, animals anesthetized (intraperitoneal ketamine and xylazine) and 200 μl of blood withdrawn into heparinized capillaries by puncturing the retro-orbital plexus. Plasma and urinary concentrations of Na+ and K+ were measured by flame photometer (ELEX 6361, Eppendorf, Germany), Cl— concentrations by electrometric titration (Chloridometer 6610, Eppendorf, Germany), Ca2+, phosphorus and creatinine were assessed by commercial diagnostic kits (Sigma, Munich, Germany).

[2] = system: sgk1+/+ and sgk1−/− mice; assay: Cardiac fibrosis by microscopy (H&E and Masson's trichrome) after DOCA/high salt; format: in vivo; settings: 18 day DOCA/high salt
Description: Hearts from untreated or DOCA/high salt treated (18 days) sgk1+/+ and sgk1−/− mice were quickly removed under anesthesia, the weight determined and fixed in 4% paraformaldehyde/0.1 M sodium phosphate buffer (pH 7.2) overnight and embedded in paraffin. Dewaxed 5 μm thick heart muscle sections were stained with H&E and Masson's trichrome (30). Stained paraffin sections were analysed on a Zeiss Axioplan microscope (Zeiss, Jena, Germany). Areas were measured on digitized images using an Axiocam video camera (Zeiss, Jena, Germany) using the manufacture's software (Axiovision, Zeiss, Jena, Germany). Total tissue areas were measured with a 4× objective; fibrotic areas were identified and quantified using a 20× objective. The degree of fibrosis was then calculated as a percentage of total tissue area.

[3] = system: sgk1+/+ and sgk1−/− mice; assay: Cardiac gene transcription after DOCA/high salt (microarray analysis, real-time PCR); format: in vivo
Description: Total RNA was isolated from hearts obtained from untreated or DOCA/high salt (48 h) treated sgk1+/+ and sgk1−/− mice using the Qiagen RNeasy Fibrous Tissue Midi Kit according to the manufacture's instructions (Qiagen, Hilden, Germany). Using total RNA from hearts of DOCA/high salt or sham-treated sgk1−/− and sgk1+/+ mice, second-strand syntheses were generated using a commercially available kit (Invitrogen Life Technologies, Rockville, Md.) and an oligo d(T)24 T7 primer. cRNA was generated using biotin-labelled CTP and UTP by in vitro transcription using a T7 promoter-coupled double stranded cDNA as template and the T7 RNA transcript labelling kit (ENZO Diagnostics, Farmingdale, N.Y.). The cRNA was fragmented and hybridised to the mouse genome MOE430A oligonucleotide array chip (Affymetrix, Santa Clara, Calif.). The array chips were then stained using phycoerythrin conjugated streptavidin (Molecular Probes, Invitrogen Life Technologies, Rockville, Md.) and the fluorescence intensities were determined using a laser confocal scanner (Agilent, Affymetrix, Santa Clara, Calif.). The intensity of the scanned images was analysed using Microarray Suite Version 5 (Affymetrix, Santa Clara, Calif.). Global scaling was applied to all arrays such that the mean intensity of each array was equivalent. In global scaling, the raw signal value of each probe cell was multiplied by a scaling factor.

[4] = system: CTGF; assay: Cardiac CTGF expression by Western blotting after DOCA/salt; format: in vivo, mice; settings: for CTGF expression in cardiac tissue (Western blot): DOCA/high salt for 18 days
Description: Whole hearts from untreated and DOCA/high salt treated (18 days) sgk1+/+ and sgk1−/− mice were removed and immediately frozen in liquid nitrogen, the tissue was then homogenised using a glass homogeniser in lysis buffer containing 50 mM Tris-HCl, pH 7.4, 100 mM NaCl, 1 mM EDTA, 1 mM EGTA, 50 mM sodium fluoride, 5 mM sodium pyrophosphate, 1 mM sodium orthovanadate, 1% Triton X-100, 1% sodium deoxycholate, 1% sodium doecyl sulphate and protease cocktail inhibitor (Roche, Basel, Switzerland), the homogenates were centrifuged at 10,000 rpm, 4° C. for 15 min, the supernatant was removed and used for Western blotting. sgk1+/+ and sgk1−/− mouse lung fibroblasts in 60 mm culture dishes were serum deprived for 18 h prior to the addition of DOCA (10 μM), 24 h later the cells were lysed. Whole cell lysates (50 μg) and heart homogenates (70 μg) were separated by SDS-page (10% Tris-Glycine), transferred to nitrocellulose membranes, blocked for 1 h in blocking buffer (5% fat-free milk in PBS containing 0.1% Tween) and incubated overnight at 4° C. with a goat polyclonal CTGF primary antibody (diluted 1:400 in blocking buffer, Santa Cruz, Heidelberg, Germany). After incubation with a HRP-conjugated anti-goat secondary antibody (Santa Cruz, Heidelberg, Germany) visualization with ECL was performed according to manufacture's instructions (Amersham, Freiburg, Germany). Membranes were also probed with a primary β-tubulin (Santa Cruz, Heidelberg, Germany) antibody as a loading control. Densitometric analysis of CTGF was performed using Scion Image (Scion, Md., USA) and normalized using β-tubulin.

[5] = system: CTGF; assay: CTGF expression in primary mouse lung fibroblasts after DOCA stimulation (Western blot); format: cell-based; settings: DOCA 10 μM, 24 h; sgk1+/+ and sgk1−/− cells
Description: To harvest lung fibroblasts from sgk1+/+ and sgk1−/− mice (8-14 weeks old), whole lungs were removed and transferred to 90 mm cell culture dishes containing 2 ml of DMEM supplemented with 10% fetal calf serum, 100 U/ml Penicillin, […] Streptomycin and 2 mM L-glutamine (Gibco-Invitrogen, Karlsruhe, Germany). The tissue was cut into small pieces and cultured under standard cell culture conditions (37° C., 5% CO2). Cell growth was observed 2-4 days after initial plating. Fibroblasts were identified by positive staining for fibronectin and used in experiments between passages 2-6. Increase of SGK1 mRNA by DOCA treatment and absence of SGK1 in sgk1−/− mice lung fibroblasts was confirmed by realtime PCR (data not shown). […]

SMILES: CC(=O)OCC(=O)[C@H]1CC[C@H]2[C@@H]3CCC4=CC(=O)CC[C@]4(C)[C@H]3CC[C@]12C [DOCA]
- hypokalemia ([1]; DOCA/high salt for 18 days, sgk1+/+ vs sgk1−/− mice): significant hypokalemia in sgk1+/+ but not in sgk1−/− mice
- salt intake from bottle 2 (1% NaCl) ([1]; sgk1+/+ mice, after implanting the DOCA pellet): pronounced increase in salt intake
- blood pressure ([1]; sgk1−/− and sgk1+/+ mice, DOCA/high salt for 18 days): statistically significant increases in blood pressure
- fibrosis of the heart ([2]; sgk1+/+ mice): marked fibrosis of the heart
- fibrosis of the heart ([2]; sgk1−/− mice): without any appreciable effect on the heart
- fold increase in SGK1/GAPDH copy number (SGK1 transcription) ([3]; heart, sgk1+/+ mice, 48 h DOCA/high salt vs untreated sgk1+/+ mice, real-time PCR): 2.10±0.14 fold
- induction of fibrosis genes (procollagens, integrin α5, proteoglycan 4, CTGF), microarray ([3]; sgk1+/+ mice, 48 h DOCA/high salt): induced several genes involved in the pathogenesis of fibrosis
- induction of fibrosis genes (procollagens, integrin α5, proteoglycan 4, CTGF), microarray ([3]; sgk1−/− mice, DOCA/high salt): none of these genes were induced
- cardiac CTGF expression, CTGF/β-tubulin densitometric analysis ([4]; sgk1+/+ mice, DOCA/1% salt (untreated: 0.9±0.2), P<0.01): 4.7±1.0 arbitrary units
- CTGF expression in cardiac tissue (Western blot) ([4]; sgk1+/+ mice): markedly upregulated CTGF expression
- cardiac CTGF expression, CTGF/β-tubulin densitometric analysis ([4]; sgk1−/− mice, DOCA/high salt (untreated: 1.5±1.0)): 1.7±0.7 arbitrary units
- CTGF expression in cardiac tissue (Western blot) ([4]; sgk1−/− mice): unaltered
- CTGF levels in primary mouse lung fibroblasts [5]: elevated CTGF levels only in the sgk1+/+ cells
